Test results reported in BigSolDB 2.1.

CN1CCC(N(Cc2cccs2)c2ccccc2)CC1
solubility (mole fraction)
Settings | 278.15 K | 283.15 K | 288.15 K | 293.15 K | 298.15 K | 303.15 K | 308.15 K | 313.15 K | 318.15 K | 323.15 K
in DMF | 0.00706 | 0.00795 | 0.00881 | 0.00971 | 0.0108 | 0.0119 | 0.0132 | 0.0143 | 0.0158 | 0.0175
in water | 2.63e-05 | 2.84e-05 | 3.06e-05 | 3.36e-05 | 3.72e-05 | 4.16e-05 | 4.62e-05 | 5.09e-05 | 5.66e-05 | 6.3e-05
